Legend:
[1] = target: human D3 receptors (Homo sapiens, UniProt P35462); experiment: Radioligand binding assay with [125I]IABN, D3 receptor; parameters: expressed in transfected cells; host or cells: HEK293
Description: Two different assays were used to evaluate the properties of the analogs described above. The receptor binding affinity was measured by radioligand binding assays using [^125I]IABN with D2 or D3 receptors highly expressed HEK293 cells. The functional activity of the analogs was determined using a β-arrestin recruitment assay. The assay was initially conducted in agonist binding mode to confirm that they function as antagonists at the D3 receptor. Once this efficacy was confirmed, the assay was conducted in antagonist mode to determine the ability of the antagonist to compete with dopamine at the D3 receptor. The results of the antagonist mode assay are reported as IC50 values.
(§1) Ki values for D2 and D3 receptors were measured using [^125I]IABN in human D2 and D3 receptors expressed in HEK cells, respectively. A filtration binding assay was used to characterize membrane-associated receptor binding properties. The details for the procedures were described in the literature.

[2] = target: Serotonin 5-HT1B (Homo sapiens, UniProt P28222); experiment: PDSP binding screen
Chain of Serotonin 5-HT1B (P28222 whole entry): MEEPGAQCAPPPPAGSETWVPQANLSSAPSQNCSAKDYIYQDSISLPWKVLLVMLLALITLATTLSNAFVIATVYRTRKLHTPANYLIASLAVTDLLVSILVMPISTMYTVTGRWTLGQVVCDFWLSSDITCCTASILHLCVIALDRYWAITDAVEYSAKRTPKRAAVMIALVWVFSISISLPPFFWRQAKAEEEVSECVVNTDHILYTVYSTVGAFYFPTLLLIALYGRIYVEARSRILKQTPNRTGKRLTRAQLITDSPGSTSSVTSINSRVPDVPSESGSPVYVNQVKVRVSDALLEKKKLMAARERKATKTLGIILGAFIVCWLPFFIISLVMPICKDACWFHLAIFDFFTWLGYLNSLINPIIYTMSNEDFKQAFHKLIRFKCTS

[3] = target: Muscarinic M3 (Homo sapiens, UniProt P20309); experiment: PDSP binding screen
Chain of Muscarinic M3 (P20309 whole entry): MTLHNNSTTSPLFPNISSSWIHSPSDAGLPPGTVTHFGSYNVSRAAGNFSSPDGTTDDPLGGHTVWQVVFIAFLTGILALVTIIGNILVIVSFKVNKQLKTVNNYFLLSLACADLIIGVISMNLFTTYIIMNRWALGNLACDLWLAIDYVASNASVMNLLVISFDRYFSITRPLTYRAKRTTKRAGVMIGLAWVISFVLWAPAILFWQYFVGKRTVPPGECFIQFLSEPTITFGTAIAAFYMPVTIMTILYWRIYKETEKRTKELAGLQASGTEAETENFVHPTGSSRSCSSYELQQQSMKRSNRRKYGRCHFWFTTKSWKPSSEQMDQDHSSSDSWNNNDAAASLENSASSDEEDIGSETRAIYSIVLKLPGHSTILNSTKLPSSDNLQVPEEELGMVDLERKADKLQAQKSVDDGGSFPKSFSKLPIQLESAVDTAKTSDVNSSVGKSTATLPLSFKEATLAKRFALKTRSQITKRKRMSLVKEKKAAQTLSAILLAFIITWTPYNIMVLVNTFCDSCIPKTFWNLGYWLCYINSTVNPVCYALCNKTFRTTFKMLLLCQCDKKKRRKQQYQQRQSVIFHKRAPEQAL

[4] = target: Opioid KOR (Homo sapiens, UniProt P41145); experiment: PDSP binding screen
Chain of Opioid KOR (P41145 whole entry): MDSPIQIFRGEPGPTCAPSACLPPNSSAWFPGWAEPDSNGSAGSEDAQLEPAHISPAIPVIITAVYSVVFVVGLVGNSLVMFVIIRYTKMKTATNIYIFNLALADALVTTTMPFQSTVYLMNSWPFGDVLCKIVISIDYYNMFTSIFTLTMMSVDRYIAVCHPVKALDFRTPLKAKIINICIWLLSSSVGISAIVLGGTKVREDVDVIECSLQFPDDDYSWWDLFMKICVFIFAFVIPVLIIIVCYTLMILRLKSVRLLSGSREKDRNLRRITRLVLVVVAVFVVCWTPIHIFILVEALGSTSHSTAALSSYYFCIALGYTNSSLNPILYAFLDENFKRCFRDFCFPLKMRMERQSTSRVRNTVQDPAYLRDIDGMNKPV

[5] = target: Dopamine D2 (Homo sapiens, UniProt P14416); experiment: PDSP binding screen
Chain of Dopamine D2 (P14416 whole entry): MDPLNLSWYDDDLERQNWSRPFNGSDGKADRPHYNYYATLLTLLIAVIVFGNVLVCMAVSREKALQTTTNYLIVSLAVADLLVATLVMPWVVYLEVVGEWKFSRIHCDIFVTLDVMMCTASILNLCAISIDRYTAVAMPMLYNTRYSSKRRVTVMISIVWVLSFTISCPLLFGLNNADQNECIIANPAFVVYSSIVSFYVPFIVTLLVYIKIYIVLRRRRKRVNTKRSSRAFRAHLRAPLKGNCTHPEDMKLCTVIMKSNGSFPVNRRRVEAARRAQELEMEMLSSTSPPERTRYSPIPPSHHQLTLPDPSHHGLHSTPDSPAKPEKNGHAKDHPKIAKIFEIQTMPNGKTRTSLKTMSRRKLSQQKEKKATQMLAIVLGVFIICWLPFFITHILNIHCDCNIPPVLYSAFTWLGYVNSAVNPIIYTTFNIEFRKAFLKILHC

[6] = target: T1, Muscarinic M1 (Homo sapiens, UniProt P11229); experiment: PDSP binding screen
T1 sequence (P11229 1-460): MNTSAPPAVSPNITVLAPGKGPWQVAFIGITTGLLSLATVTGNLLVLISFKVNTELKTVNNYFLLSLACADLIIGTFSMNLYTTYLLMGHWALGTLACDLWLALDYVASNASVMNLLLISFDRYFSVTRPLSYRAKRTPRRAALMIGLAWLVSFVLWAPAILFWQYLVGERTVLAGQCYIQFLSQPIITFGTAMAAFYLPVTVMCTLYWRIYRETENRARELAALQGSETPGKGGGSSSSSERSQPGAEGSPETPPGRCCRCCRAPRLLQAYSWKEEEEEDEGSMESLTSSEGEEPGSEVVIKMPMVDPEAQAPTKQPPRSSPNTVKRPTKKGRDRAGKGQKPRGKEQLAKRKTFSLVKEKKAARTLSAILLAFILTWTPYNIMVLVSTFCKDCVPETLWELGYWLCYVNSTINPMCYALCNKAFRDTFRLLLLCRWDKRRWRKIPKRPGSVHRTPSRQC

[7] = target: Adrenergic beta1 (Homo sapiens, UniProt P08588); experiment: PDSP binding screen
Chain of Adrenergic beta1 (P08588 whole entry): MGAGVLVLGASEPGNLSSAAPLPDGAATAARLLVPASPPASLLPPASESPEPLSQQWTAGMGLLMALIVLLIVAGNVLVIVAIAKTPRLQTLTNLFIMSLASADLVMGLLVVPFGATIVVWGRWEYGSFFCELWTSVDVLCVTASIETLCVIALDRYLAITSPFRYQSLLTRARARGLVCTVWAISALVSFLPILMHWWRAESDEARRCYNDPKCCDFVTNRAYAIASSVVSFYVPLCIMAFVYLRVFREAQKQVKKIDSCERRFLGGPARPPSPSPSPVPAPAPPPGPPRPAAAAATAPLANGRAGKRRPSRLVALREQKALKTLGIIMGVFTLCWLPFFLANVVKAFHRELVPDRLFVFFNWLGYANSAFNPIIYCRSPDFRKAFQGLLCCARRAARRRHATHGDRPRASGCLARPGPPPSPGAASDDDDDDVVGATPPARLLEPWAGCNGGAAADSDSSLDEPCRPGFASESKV

[8] = target: T2, Adrenergic alpha1A (Homo sapiens, UniProt P35348); experiment: PDSP binding screen; details: read-out: Ki (nM) or % inhibition at 10 µM: alpha1A
T2 sequence (P35348 1-466): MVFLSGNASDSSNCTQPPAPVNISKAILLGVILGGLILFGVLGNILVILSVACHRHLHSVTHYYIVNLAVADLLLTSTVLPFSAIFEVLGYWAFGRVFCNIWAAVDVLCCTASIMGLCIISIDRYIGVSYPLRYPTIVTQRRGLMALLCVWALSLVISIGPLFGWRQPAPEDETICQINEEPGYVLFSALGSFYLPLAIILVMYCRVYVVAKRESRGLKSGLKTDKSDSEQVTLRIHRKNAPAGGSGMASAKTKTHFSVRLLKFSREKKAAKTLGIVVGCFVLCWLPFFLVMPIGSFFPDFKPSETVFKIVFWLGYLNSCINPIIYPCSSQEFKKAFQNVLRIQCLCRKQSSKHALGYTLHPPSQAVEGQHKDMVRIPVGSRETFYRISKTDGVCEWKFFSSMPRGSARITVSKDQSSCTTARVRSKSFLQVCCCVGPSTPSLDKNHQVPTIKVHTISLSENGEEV

[9] = target: T3, Muscarinic M4 (Homo sapiens, UniProt P08173); experiment: PDSP binding screen
T3 sequence (P08173 1-479): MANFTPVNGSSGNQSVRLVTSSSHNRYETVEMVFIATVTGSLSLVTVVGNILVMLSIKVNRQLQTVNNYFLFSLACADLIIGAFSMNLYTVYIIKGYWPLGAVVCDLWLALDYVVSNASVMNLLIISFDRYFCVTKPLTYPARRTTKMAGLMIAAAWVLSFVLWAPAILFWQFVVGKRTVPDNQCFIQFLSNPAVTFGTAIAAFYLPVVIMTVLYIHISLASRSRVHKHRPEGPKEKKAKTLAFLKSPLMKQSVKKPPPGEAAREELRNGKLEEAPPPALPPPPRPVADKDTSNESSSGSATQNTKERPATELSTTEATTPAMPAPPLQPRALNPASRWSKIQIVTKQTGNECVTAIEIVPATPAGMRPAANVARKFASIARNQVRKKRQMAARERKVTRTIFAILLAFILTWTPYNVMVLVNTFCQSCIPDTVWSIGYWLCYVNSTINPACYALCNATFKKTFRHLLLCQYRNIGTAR

[10] = target: Histamine H4 (Homo sapiens, UniProt Q9H3N8); experiment: PDSP binding screen
Chain of Histamine H4 (Q9H3N8 whole entry): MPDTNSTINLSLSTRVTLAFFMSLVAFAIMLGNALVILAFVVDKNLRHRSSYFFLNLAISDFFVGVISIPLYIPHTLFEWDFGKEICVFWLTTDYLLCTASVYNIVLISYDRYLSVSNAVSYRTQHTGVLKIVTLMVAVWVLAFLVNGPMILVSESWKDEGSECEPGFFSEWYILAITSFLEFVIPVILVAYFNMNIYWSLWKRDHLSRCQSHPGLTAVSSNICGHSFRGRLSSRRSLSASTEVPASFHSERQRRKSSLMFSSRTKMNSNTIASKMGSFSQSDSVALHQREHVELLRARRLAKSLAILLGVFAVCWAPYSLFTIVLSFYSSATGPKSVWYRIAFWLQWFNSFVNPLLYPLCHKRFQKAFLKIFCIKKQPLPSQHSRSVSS

[11] = target: T4, human D2 receptors (Homo sapiens, UniProt P14416); experiment: Radioligand binding assay with [125I]IABN, D2 receptor
T4 construct: expressed in transfected cells; host or cells: HEK293
T4 sequence (P14416 whole entry): as the sequence (P14416 whole entry) above
Description: Two different assays were used to evaluate the properties of the analogs described above. The receptor binding affinity was measured by radioligand binding assays using [^125I]IABN with D2 or D3 receptors highly expressed HEK293 cells. The functional activity of the analogs was determined using a β-arrestin recruitment assay. […] The results of the antagonist mode assay are reported as IC50 values.
as §1

[12] = target: Dopamine D1 (Homo sapiens, UniProt P21728); experiment: PDSP binding screen
Chain of Dopamine D1 (P21728 whole entry): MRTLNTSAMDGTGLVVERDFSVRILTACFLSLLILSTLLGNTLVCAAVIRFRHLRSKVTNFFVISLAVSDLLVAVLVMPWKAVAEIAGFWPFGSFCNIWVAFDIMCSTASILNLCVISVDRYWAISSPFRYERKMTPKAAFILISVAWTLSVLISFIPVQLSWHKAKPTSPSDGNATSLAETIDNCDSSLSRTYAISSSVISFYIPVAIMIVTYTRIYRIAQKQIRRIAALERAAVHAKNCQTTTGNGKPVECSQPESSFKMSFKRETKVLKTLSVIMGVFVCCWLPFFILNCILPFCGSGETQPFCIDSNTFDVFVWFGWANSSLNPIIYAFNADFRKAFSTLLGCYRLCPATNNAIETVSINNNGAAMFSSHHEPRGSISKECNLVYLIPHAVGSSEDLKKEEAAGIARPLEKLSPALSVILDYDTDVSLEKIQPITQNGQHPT

[13] = target: Dopamine D5 (Homo sapiens, UniProt P21918); experiment: PDSP binding screen
Chain of Dopamine D5 (P21918 whole entry): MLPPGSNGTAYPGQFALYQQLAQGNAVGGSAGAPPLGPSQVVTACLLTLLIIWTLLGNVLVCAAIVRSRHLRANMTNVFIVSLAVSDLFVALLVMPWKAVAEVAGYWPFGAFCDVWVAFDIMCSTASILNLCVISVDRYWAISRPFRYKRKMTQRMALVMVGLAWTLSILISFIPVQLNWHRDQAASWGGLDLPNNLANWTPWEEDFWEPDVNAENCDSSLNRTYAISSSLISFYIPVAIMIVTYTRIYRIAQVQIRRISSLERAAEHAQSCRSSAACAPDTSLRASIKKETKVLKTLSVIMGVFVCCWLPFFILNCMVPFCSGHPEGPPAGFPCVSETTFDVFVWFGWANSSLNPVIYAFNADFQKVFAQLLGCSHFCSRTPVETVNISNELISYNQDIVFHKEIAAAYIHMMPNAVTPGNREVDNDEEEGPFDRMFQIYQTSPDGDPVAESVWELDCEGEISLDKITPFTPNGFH

Chain of human D3 receptors (P35462 whole entry): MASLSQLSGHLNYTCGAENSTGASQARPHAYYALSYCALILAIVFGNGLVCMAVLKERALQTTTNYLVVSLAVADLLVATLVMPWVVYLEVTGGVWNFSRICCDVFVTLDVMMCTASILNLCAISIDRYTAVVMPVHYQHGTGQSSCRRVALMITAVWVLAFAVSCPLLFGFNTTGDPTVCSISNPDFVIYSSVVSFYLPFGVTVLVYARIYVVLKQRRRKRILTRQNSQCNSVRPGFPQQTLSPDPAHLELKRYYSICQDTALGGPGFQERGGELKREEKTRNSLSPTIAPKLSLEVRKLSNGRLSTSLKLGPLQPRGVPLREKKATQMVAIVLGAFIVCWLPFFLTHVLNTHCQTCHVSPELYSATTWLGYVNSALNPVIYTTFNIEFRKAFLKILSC

For `CCN(CCCNC(=O)c1ccc(-c2cccs2)cc1)CCNC(=O)c1cc(Br)cc(OC)c1OC` [9a, 5-Bromo-N-(2-(ethyl(3-(4-(thiophen-2-yl)benzamido)propyl)amino)ethyl)-2,3-dimethoxybenzamide], the Ki ([1]; Ki ± SEM (nM) D3, [125I]IABN, D3 receptors expressed in HEK cells, mean ± SEM, three experiments, HCl salts) was 1 ± 0.01 nM, the D2/D3 ([1]; selectivity ratio of Ki D2 / Ki D3 (fold)) was 169 and the Ki [2] was 905 nM. For the same molecule, the Ki [3] was 4750 nM, the Ki [4] was 107 nM and the Ki [5] was 232 nM. For the same molecule, the Ki [6] was 2350 nM, the Ki [7] was 5900 nM and the inhibition at 10 µM [8] was < 50%. It also gave a Ki [9] of 1600 nM, a Ki [10] of 6420 nM and a Ki [11] of 169 ± 4 nM. It also gave a Ki [12] of 2400 nM and a Ki [13] of 1470 nM.
